Assay results from PMC2483479 (Acta Crystallographica Section D: Biological Crystallography, 2007).

T1: E. coli KAS I (Escherichia coli, UniProt P0A953)
T1 sequence (P0A953 1-406): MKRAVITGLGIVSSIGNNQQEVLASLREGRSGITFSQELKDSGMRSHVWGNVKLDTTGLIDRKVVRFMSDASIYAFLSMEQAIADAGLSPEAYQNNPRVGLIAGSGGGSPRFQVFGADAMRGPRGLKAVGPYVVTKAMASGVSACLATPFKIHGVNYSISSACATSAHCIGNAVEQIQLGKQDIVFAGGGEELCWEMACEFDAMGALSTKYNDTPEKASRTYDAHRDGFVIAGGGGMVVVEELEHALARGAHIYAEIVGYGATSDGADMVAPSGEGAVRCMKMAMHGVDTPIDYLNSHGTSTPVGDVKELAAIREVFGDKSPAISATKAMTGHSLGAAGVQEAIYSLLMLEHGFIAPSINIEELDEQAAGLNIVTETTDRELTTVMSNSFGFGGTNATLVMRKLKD

B1: Escherichia coli β-ketoacyl-ACP synthase I (KAS I) (enzyme)
chain: T1 sequence (P0A953 1-406)

Key:
[1] = target: T1, E. coli KAS I; assay: X-ray crystal structure; assay type: binding; details: 0.3 mM thiolactomycin, 2.3 M ammonium sulfate, 0.1 M Tris-HCl pH 7.5, 3% DMSO; active site
[2] = target: the molecule itself; assay: crystal structure

Row | Molecule | X-ray crystal structure (crystal soaking) [1] | binding result [2]
1 | C=C/C(C)=C/[C@@]1(C)SC(=O)C(C)=C1O [thiolactomycin] | clearly confirmed binding of thiolactomycin at the active site | –
2 | B1 | – | binds
